From patent US20240336606A1 (Suzhou Zelgen Biopharmaceuticals Co., Ltd., priority 2020, published 2024)

Columns and labels:
[1] = molecular target: T1, binding of KRAS^G12C to SOS1 (Homo sapiens, UniProt Q07889); assay: Inhibition of the binding of KRAS^G12C to SOS1; conditions: Tag1-SOS1 / Tag2-KRAS^G12C, 2 h incubation at room temperature; read-out: IC50 (nM), inhibitory activity on the binding of KRAS^G12C to SOS1
T1 construct: Tag1 (unspecified)
T1 sequence (Q07889 1-1333): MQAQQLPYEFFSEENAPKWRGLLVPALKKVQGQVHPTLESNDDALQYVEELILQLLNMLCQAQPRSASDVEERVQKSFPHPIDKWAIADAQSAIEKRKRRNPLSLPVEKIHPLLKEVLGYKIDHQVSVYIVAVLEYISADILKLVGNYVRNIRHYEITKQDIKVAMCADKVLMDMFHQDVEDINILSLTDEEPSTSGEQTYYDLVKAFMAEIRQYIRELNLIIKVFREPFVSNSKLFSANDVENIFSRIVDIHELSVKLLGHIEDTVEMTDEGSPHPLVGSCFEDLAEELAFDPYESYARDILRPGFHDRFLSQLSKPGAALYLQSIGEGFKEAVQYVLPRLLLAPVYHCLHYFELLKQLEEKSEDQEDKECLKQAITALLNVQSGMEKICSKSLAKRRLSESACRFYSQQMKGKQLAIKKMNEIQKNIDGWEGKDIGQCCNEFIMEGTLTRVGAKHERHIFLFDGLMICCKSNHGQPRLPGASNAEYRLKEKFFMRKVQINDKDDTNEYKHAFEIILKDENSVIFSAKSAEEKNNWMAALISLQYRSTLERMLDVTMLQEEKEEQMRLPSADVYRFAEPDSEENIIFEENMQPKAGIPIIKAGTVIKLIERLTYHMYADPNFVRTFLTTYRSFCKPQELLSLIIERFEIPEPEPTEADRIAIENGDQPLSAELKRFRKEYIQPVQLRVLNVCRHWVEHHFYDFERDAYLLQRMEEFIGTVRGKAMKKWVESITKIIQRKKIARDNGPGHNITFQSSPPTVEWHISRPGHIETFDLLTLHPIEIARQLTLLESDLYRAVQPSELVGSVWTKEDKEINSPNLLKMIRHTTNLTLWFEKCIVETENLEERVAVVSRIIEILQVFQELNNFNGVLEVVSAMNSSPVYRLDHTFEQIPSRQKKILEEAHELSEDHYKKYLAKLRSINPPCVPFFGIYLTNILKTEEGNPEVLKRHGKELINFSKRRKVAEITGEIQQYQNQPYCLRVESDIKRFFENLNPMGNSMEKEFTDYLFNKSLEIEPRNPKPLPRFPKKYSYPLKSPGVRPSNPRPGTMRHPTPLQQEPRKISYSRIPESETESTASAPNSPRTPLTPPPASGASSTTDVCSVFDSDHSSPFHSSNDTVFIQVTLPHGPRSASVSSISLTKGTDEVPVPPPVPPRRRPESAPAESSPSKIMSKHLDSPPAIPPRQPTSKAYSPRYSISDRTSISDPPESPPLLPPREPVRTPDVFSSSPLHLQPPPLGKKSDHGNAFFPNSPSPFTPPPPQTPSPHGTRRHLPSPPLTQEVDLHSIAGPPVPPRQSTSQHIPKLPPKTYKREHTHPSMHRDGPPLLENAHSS
How it was run: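 Tag1-SOS1 and Tag2-KRAS^G12C mixed with serially diluted compound (final 0.25% DMSO), then anti-Tag1-Tb3+ and anti-Tag2-XL665 added for 2 h at room temperature. IC50 from curve fit of the TR-FRET signal.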

H358 cells = assay: Inhibition of H358 cell proliferation (CellTiter-Glo 3D, 7 days); assay type: cell-based; conditions: Homo sapiens, 168 h, NCI-H358, 7 days, read-out: IC50 (nM), inhibitory activity on H358 cell proliferation
Method: • (a) The cells were thawed in T75 cell culture flasks:
• (b) When 80-90% cell confluence was achieved, the cells were passaged.
The diluted test compounds were added to a 384-well cell culture plate using a nanoliter pipetting system, and duplicate wells were set. An equal volume of medium was added to the positive control group; an equal volume of DMSO was added to the negative control group. The plate was centrifuged at 1000 rpm at room temperature for 1 min.
The cells were inoculated into a) 384-well culture plate, an equal volume of cells was added to the negative control group, and only an equal volume of medium was added to the positive control group. The plate was centrifuged at 1000 rpm at room temperature for 1 min. The final concentration of DMSO in the final compounds was 0.5%. The plate was incubated in a thermostatic incubator at 37° C. with 5% CO2 for 7 days.
CellTiter-Glo® 3D was added to b) 384-well cell culture plate at 20 μL/well. The plate was shaken at 320 rpm in the dark for 20 min, and incubated at room temperature in the dark for 2 h. The luminescence values were read using an Envision multi-mode microplate reader.
The inhibition rates of the compounds at different concentrations were calculated in Excel, and then inhibition curves were plotted and relevant parameters including minimum inhibition rate, maximum inhibition rate and IC50 were calculated using GraphPad Prism software.

MIA PaCa-2 tumor cells = assay: Anti-tumor pharmacodynamic evaluation, MIA PaCa-2 subcutaneous xenograft; assay type: in vivo; conditions: MIA PaCa-2 in nude mice
Method: 100 μL of a suspension containing 5×10^6 MIA PaCa-2 tumor cells was subcutaneously inoculated into the right posterior abdomens of nude mice. The health of the mice was monitored daily, and measurements were started when tumors grew to be palpable. The tumor volume was calculated as follows: 0.5×L×W^2, where L and W represent the length and width of the tumor, respectively. When the tumors grew to about 100 mm^3, the mice were randomized into groups. The mice were intragastrically administered a corresponding dose (50 mg/kg) of compound suspension in CMC-Na twice daily, and their general states were monitored at the same time. The tumors were measured 3 times a week, and the body weight was measured twice a week.

[2] = Day 21, 50 mg/kg intragastric twice daily

IC50 [1]	IC50 (H358 cells)	Structure (SMILES)	TV (mm^3) (tumor volume) Day 0 (MIA PaCa-2 tumor cells; Day 0 (at grouping), 50 mg/kg intragastric twice daily)	% TGI (tumor growth inhibition) (MIA PaCa-2 tumor cells; [2])	TV (mm^3) (tumor volume) Day 21 (MIA PaCa-2 tumor cells; [2])
3.2 nM	16.6 nM	COCCOc1cc2c(N[C@H](C)c3cccc(C(F)(F)C(C)(C)O)c3F)nc(C)nc2cc1OC [Example 72, (R)-1,1-Difluoro-1-(2-fluoro-3-(1-((7-methoxy-6-(2-methoxyethoxy)-2-methylquinazolin-4-yl)amino)ethyl)phenyl)-2-methylpropan-2-ol]	103 mm^3	84.9%	175 mm^3
19 nM	419 nM	COCCOc1cc2c(N[C@H](C)c3cc(C(F)(F)C(C)(C)O)ccc3F)nc(C)nc2cc1OC [Example 79, (R)-1,1-Difluoro-1-(4-fluoro-3-(1-((7-methoxy-6-(2-methoxyethoxy)-2-methylquinazolin-4-yl)amino)ethyl)phenyl)-2-methylpropan-2-ol]	–	–	–
4.4 nM	11.8 nM	COCCOc1cc2nc(C)nc(N[C@H](C)c3cccc(C(F)(F)C(C)(C)O)c3F)c2cc1OCCOC [Example 86, (R)-1-(3-(1-((6,7-Bis(2-methoxyethoxy)-2-methylquinazolin-4-yl)amino)ethyl)-2-fluorophenyl)-1,1-difluoro-2-methylpropan-2-ol]	–	–	–
